Calls of active or inactive are those of the source.
Key:
Format in all cases: functional
SK-OV-3 = assay: Growth inhibition of human SKOV3 cells at 10^-5 M incubated for 48 hrs by sulforhodamine B assay relative to control
K562 = assay: Growth inhibition of human K562 cells at 10^-5 M incubated for 48 hrs by sulforhodamine B assay relative to control
UACC-62 = assay: Growth inhibition of human UACC62 cells at 10^-5 M incubated for 48 hrs by sulforhodamine B assay relative to control
HL-60(TB) = assay: Growth inhibition of human HL-60(TB) cells at 10^-5 M incubated for 48 hrs by sulforhodamine B assay relative to control
MDA-MB-468 = assay: Growth inhibition of human MDA-MB-468 cells at 10^-5 M incubated for 48 hrs by sulforhodamine B assay relative to control
EKVX = assay: Growth inhibition of human EKVX cells at 10^-5 M incubated for 48 hrs by sulforhodamine B assay relative to control
NCI-H23 = assay: Growth inhibition of human NCI-H23 cells at 10^-5 M incubated for 48 hrs by sulforhodamine B assay relative to control
SF-539 = assay: Growth inhibition of human SF539 cells at 10^-5 M incubated for 48 hrs by sulforhodamine B assay relative to control
Malme-3M = assay: Growth inhibition of human MALME-3M cells at 10^-5 M incubated for 48 hrs by sulforhodamine B assay relative to control
ACHN = assay: Growth inhibition of human ACHN cells at 10^-5 M incubated for 48 hrs by sulforhodamine B assay relative to control
HCT-116 = assay: Growth inhibition of human HCT116 cells at 10^-5 M incubated for 48 hrs by sulforhodamine B assay relative to control
SW-620 = assay: Growth inhibition of human SW620 cells at 10^-5 M incubated for 48 hrs by sulforhodamine B assay relative to control
SK-MEL-28 = assay: Growth inhibition of human SK-MEL-28 cells at 10^-5 M incubated for 48 hrs by sulforhodamine B assay relative to control
MOLT-4 = assay: Growth inhibition of human MOLT4 cells at 10^-5 M incubated for 48 hrs by sulforhodamine B assay relative to control
Aspergillus fumigatus [1] = assay: Antifungal activity against Aspergillus fumigatus at 100 ug/ml by disc diffusion method; conditions: read-out: IZ
OVCAR-3 = assay: Growth inhibition of human OVCAR3 cells at 10^-5 M incubated for 48 hrs by sulforhodamine B assay relative to control
SF-295 = assay: Growth inhibition of human SF295 cells at 10^-5 M incubated for 48 hrs by sulforhodamine B assay relative to control
SNB-75 = assay: Growth inhibition of human SNB75 cells at 10^-5 M incubated for 48 hrs by sulforhodamine B assay relative to control
OVCAR-5 = assay: Growth inhibition of human OVCAR5 cells at 10^-5 M incubated for 48 hrs by sulforhodamine B assay relative to control
LOX IMVI = assay: Growth inhibition of human LOXIMVI cells at 10^-5 M incubated for 48 hrs by sulforhodamine B assay relative to control
Aspergillus fumigatus [2] = assay: Antifungal activity against Aspergillus fumigatus after 24 hrs by serial dilution method
SF-268 = assay: Growth inhibition of human SF268 cells at 10^-5 M incubated for 48 hrs by sulforhodamine B assay relative to control
MDA-MB-435 = assay: Growth inhibition of human MDA-MB-435 cells at 10^-5 M incubated for 48 hrs by sulforhodamine B assay relative to control
HCC 2998 = assay: Growth inhibition of human HCC2998 cells at 10^-5 M incubated for 48 hrs by sulforhodamine B assay relative to control
A549 = assay: Growth inhibition of human A549/ATCC cells at 10^-5 M incubated for 48 hrs by sulforhodamine B assay relative to control
SNB-19 = assay: Growth inhibition of human SNB19 cells at 10^-5 M incubated for 48 hrs by sulforhodamine B assay relative to control
CAKI-1 = assay: Growth inhibition of human Caki1 cells at 10^-5 M incubated for 48 hrs by sulforhodamine B assay relative to control
U-251 = assay: Growth inhibition of human U251 cells at 10^-5 M incubated for 48 hrs by sulforhodamine B assay relative to control
T47D = assay: Growth inhibition of human T47D cells at 10^-5 M incubated for 48 hrs by sulforhodamine B assay relative to control
Hs-578T = assay: Growth inhibition of human Hs 578T cells at 10^-5 M incubated for 48 hrs by sulforhodamine B assay relative to control
NCI-H226 = assay: Growth inhibition of human NCI-H226 cells at 10^-5 M incubated for 48 hrs by sulforhodamine B assay relative to control
BT-549 = assay: Growth inhibition of human BT549 cells at 10^-5 M incubated for 48 hrs by sulforhodamine B assay relative to control
UACC-257 = assay: Growth inhibition of human UACC257 cells at 10^-5 M incubated for 48 hrs by sulforhodamine B assay relative to control
M14 = assay: Growth inhibition of human M14 cells at 10^-5 M incubated for 48 hrs by sulforhodamine B assay relative to control
UO-31 = assay: Growth inhibition of human UO31 cells at 10^-5 M incubated for 48 hrs by sulforhodamine B assay relative to control
Candida albicans [3] = assay: Antifungal activity against Candida albicans at 100 ug/ml by disc diffusion method; conditions: read-out: IZ
OVCAR-8 = assay: Growth inhibition of human OVCAR8 cells at 10^-5 M incubated for 48 hrs by sulforhodamine B assay relative to control
NCI-H460 = assay: Growth inhibition of human NCI-H460 cells at 10^-5 M incubated for 48 hrs by sulforhodamine B assay relative to control
MDA-MB-231 = assay: Growth inhibition of human MDA-MB-231/ATCC cells at 10^-5 M incubated for 48 hrs by sulforhodamine B assay relative to control
IGROV-1 = assay: Growth inhibition of human IGROV1 cells at 10^-5 M incubated for 48 hrs by sulforhodamine B assay relative to control
Candida albicans [4] = assay: Antifungal activity against Candida albicans after 24 hrs by serial dilution method
TK-10 = assay: Growth inhibition of human TK10 cells at 10^-5 M incubated for 48 hrs by sulforhodamine B assay relative to control
SR = assay: Growth inhibition of human SR cells at 10^-5 M incubated for 48 hrs by sulforhodamine B assay relative to control
SN12C = assay: Growth inhibition of human SN12C cells at 10^-5 M incubated for 48 hrs by sulforhodamine B assay relative to control
786-0 = assay: Growth inhibition of human 786-0 cells at 10^-5 M incubated for 48 hrs by sulforhodamine B assay relative to control

Clc1nc2ccccc2cc1Cn1nnnc1Cc1ccccc1
active: growth inhibition (GI) (SK-OV-3) | growth inhibition (GI) (K562) | growth inhibition (GI) (UACC-62) | growth inhibition (GI) (HL-60(TB)) | growth inhibition (GI) (MDA-MB-468) | growth inhibition (GI) (EKVX) | growth inhibition (GI) (NCI-H23) | growth inhibition (GI) (SF-539) | growth inhibition (GI) (Malme-3M) | growth inhibition (GI) (ACHN) | growth inhibition (GI) (HCT-116) | growth inhibition (GI) (SW-620) | growth inhibition (GI) (SK-MEL-28) | growth inhibition (GI) (MOLT-4) | growth inhibition (GI) (OVCAR-3) | growth inhibition (GI) (SF-295) | growth inhibition (GI) (SNB-75) | growth inhibition (GI) (OVCAR-5) | growth inhibition (GI) (LOX IMVI) | growth inhibition (GI) (SF-268) | growth inhibition (GI) (MDA-MB-435) | growth inhibition (GI) (HCC 2998) | growth inhibition (GI) (A549) | growth inhibition (GI) (SNB-19) | growth inhibition (GI) (CAKI-1) | growth inhibition (GI) (U-251) | growth inhibition (GI) (T47D) | growth inhibition (GI) (Hs-578T) | growth inhibition (GI) (NCI-H226) | growth inhibition (GI) (BT-549) | growth inhibition (GI) (UACC-257) | growth inhibition (GI) (M14) | growth inhibition (GI) (UO-31) | growth inhibition (GI) (OVCAR-8) | growth inhibition (GI) (NCI-H460) | growth inhibition (GI) (MDA-MB-231) | growth inhibition (GI) (IGROV-1) | growth inhibition (GI) (TK-10) | growth inhibition (GI) (SR) | growth inhibition (GI) (SN12C) | growth inhibition (GI) (786-0)
10 mm: zone of inhibition at 100 µg/mL (Candida albicans [3])
25 µg/mL: MIC (Candida albicans [4])
14 mm: zone of inhibition at 100 µg/mL (Aspergillus fumigatus [1])
50 µg/mL: MIC (Aspergillus fumigatus [2])

Clc1nc2ccccc2cc1Cn1nnc(CSc2ccccc2)n1
active: growth inhibition (GI) (SK-OV-3) | growth inhibition (GI) (K562) | growth inhibition (GI) (UACC-62) | growth inhibition (GI) (HL-60(TB)) | growth inhibition (GI) (MDA-MB-468) | growth inhibition (GI) (EKVX) | growth inhibition (GI) (NCI-H23) | growth inhibition (GI) (SF-539) | growth inhibition (GI) (Malme-3M) | growth inhibition (GI) (ACHN) | growth inhibition (GI) (HCT-116) | growth inhibition (GI) (SW-620) | growth inhibition (GI) (SK-MEL-28) | growth inhibition (GI) (MOLT-4) | growth inhibition (GI) (OVCAR-3) | growth inhibition (GI) (SF-295) | growth inhibition (GI) (SNB-75) | growth inhibition (GI) (OVCAR-5) | growth inhibition (GI) (LOX IMVI) | growth inhibition (GI) (SF-268) | growth inhibition (GI) (MDA-MB-435) | growth inhibition (GI) (HCC 2998) | growth inhibition (GI) (A549) | growth inhibition (GI) (SNB-19) | growth inhibition (GI) (CAKI-1) | growth inhibition (GI) (U-251) | growth inhibition (GI) (T47D) | growth inhibition (GI) (Hs-578T) | growth inhibition (GI) (NCI-H226) | growth inhibition (GI) (BT-549) | growth inhibition (GI) (UACC-257) | growth inhibition (GI) (M14) | growth inhibition (GI) (UO-31) | growth inhibition (GI) (OVCAR-8) | growth inhibition (GI) (NCI-H460) | growth inhibition (GI) (MDA-MB-231) | growth inhibition (GI) (IGROV-1) | growth inhibition (GI) (TK-10) | growth inhibition (GI) (SR) | growth inhibition (GI) (SN12C) | growth inhibition (GI) (786-0)
10 mm: zone of inhibition at 100 µg/mL (Candida albicans [3])
15 mm: zone of inhibition at 100 µg/mL (Aspergillus fumigatus [1])
10 µg/mL: MIC (Candida albicans [4])
25 µg/mL: MIC (Aspergillus fumigatus [2])

Fc1ccc2nc(Cl)c(Cn3nnnc3CSc3ccccc3)cc2c1
2.5 µg/mL: MIC (Aspergillus fumigatus [2])
14 mm: zone of inhibition at 100 µg/mL (Aspergillus fumigatus [1])
active: growth inhibition (GI) (SK-OV-3) | growth inhibition (GI) (K562) | growth inhibition (GI) (UACC-62) | growth inhibition (GI) (HL-60(TB)) | growth inhibition (GI) (MDA-MB-468) | growth inhibition (GI) (EKVX) | growth inhibition (GI) (NCI-H23) | growth inhibition (GI) (SF-539) | growth inhibition (GI) (Malme-3M) | growth inhibition (GI) (ACHN) | growth inhibition (GI) (HCT-116) | growth inhibition (GI) (SW-620) | growth inhibition (GI) (SK-MEL-28) | growth inhibition (GI) (MOLT-4) | growth inhibition (GI) (OVCAR-3) | growth inhibition (GI) (SF-295) | growth inhibition (GI) (SNB-75) | growth inhibition (GI) (OVCAR-5) | growth inhibition (GI) (LOX IMVI) | growth inhibition (GI) (SF-268) | growth inhibition (GI) (MDA-MB-435) | growth inhibition (GI) (HCC 2998) | growth inhibition (GI) (A549) | growth inhibition (GI) (SNB-19) | growth inhibition (GI) (CAKI-1) | growth inhibition (GI) (U-251) | growth inhibition (GI) (T47D) | growth inhibition (GI) (Hs-578T) | growth inhibition (GI) (NCI-H226) | growth inhibition (GI) (BT-549) | growth inhibition (GI) (UACC-257) | growth inhibition (GI) (M14) | growth inhibition (GI) (UO-31) | growth inhibition (GI) (OVCAR-8) | growth inhibition (GI) (NCI-H460) | growth inhibition (GI) (MDA-MB-231) | growth inhibition (GI) (IGROV-1) | growth inhibition (GI) (TK-10) | growth inhibition (GI) (SR) | growth inhibition (GI) (SN12C) | growth inhibition (GI) (786-0)
13 mm: zone of inhibition at 100 µg/mL (Candida albicans [3])
50 µg/mL: MIC (Candida albicans [4])

From ChEMBL document CHEMBL4004849, “Tetrazolylmethyl quinolines: Design, docking studies, synthesis, anticancer and antifungal analyses” (2017)
